Test results as given in PMC6278385, “Preclinical Pharmacokinetics of C118P, a Novel Prodrug of Microtubules Inhibitor and Its Metabolite C118 in Mice, Rats, and Dogs” (Molecules, 2018).

Test: Excretion in rats (bile, urine, feces)
Type: in vivo
Details: i.v. C118P 20 mg/kg
Procedure: Twelve rats (weight 220–260 g) with half males and half females were anesthetized with diethyl ether after fasted overnight. A median laparotomy was performed and the bile duct was cannulated with a catheter. After intravenous administration (20 mg/kg) of C118P solution, bile samples were collected at 1, 2, 4, 6, 10 and 24 h in EDTA-coated tubes. The accurate volume of bile samples were measured by weight loss method. A volume of 50 μL of bile was prepared by protein precipitation and determined by the method described above. The total cumulative molar excretion percentage of C118P and C118 in bile of ten rats was calculated according to the total molar amount of C118P and C118 and the dose.
Six rats (weight 200–230 g) with half males and half females were fasted overnight. After intravenous administration (20 mg/kg), urine and feces samples were collected at 12, 24, 36, 48, 60 and 72 h. The feces were collected in 200 mL of EDTA solution (100 mg/mL) and grinded into a suspension. The accurately volume amount of urine and feces samples were measured by weight loss method. A volume of 50 μL of urine or feces suspension was prepared by protein precipitation and determined by the method described above. The cumulative molar excretion percentage of C118P and C118 in urine or feces was calculated according to the concentrations of C118P and C118, the volume of each time period.

Structure (SMILES): COc1cc(OC)cc(-c2nc[nH]c2-c2ccc(OC)c(OP(=O)([O-])[O-])c2)c1.[Na+].[Na+] [C118P]
- sulfuric acid conjugation in urine: no sulfuric acid conjugation was found
